Tested on: Plasmodium berghei
Test: Luciferase/luciferin-expressing antifolate-resistant parasites were used to infect a culture of HepG2 cells that were pre-incubated with compounds. Infected hepatocytes emit light due to the luciferase reaction. Assay results are presented as the percent inhibition of light emission compared to control. […]
Type: functional
Conditions: sporozoite; for IC90: read-out: LUCIFERASE INFECTION ASSAY - IC90
[1] = read-out: LUCIFERASE INFECTION ASSAY - IC50

## COc1cc(OC)cc(-c2cc3c(Nc4cccc(S(C)(=O)=O)c4)nccc3n2C)c1
PBLUC_HILL_SLOPE 2.63, PBLUC_R_SQUARED 0.0611, read-out: LUCIFERASE INFECTION ASSAY - IC50
  IC50: 6.92 µM
  IC90: > 10 µM

## Cc1cccc(Cn2nc(C(C)(C)C)cc2-c2nnc(SCc3c(F)cccc3Cl)n2C2CCCCC2)c1
FFLUC_HILL_SLOPE 2.05, FFLUC_R_SQUARED 0.435, PBLUC_HILL_SLOPE 2, PBLUC_R_SQUARED 0.623, read-out: LUCIFERASE INFECTION ASSAY - IC50
  IC50: 4.03 µM
  IC90: > 5.98 µM

## CNc1nc2cnc(Nc3ccc(C(F)(F)F)cc3)cc2n1CC1CC1
PBLUC_HILL_SLOPE 1.2, PBLUC_R_SQUARED 0.377, read-out: LUCIFERASE INFECTION ASSAY - IC50
  IC50: 2.12 µM
  IC90: > 10 µM

## Cc1ccc(C(C)(C)CC(C)NCc2ccc(Cl)cc2)o1 (stereo not drawn)
[1]
  IC50: > 10.8 µM
  IC90: > 10.8 µM

## COc1cc(Br)c(/C=C2/C(=O)Nc3cc(Cl)ccc32)cc1O
HEPG2TOX_HILL_SLOPE 7.49, HEPG2TOX_R_SQUARED 0.517, PBLUC_HILL_SLOPE 14.1, PBLUC_R_SQUARED 0.1, read-out: LUCIFERASE INFECTION ASSAY - IC50
  IC50: 9.39 µM
  IC90: > 10 µM

## CCCc1c(Cc2c(F)cccc2Cl)c(=O)oc2cc(OC(=O)COC)ccc12
PBLUC_HILL_SLOPE 13.6, PBLUC_R_SQUARED 0.599, read-out: LUCIFERASE INFECTION ASSAY - IC50
  IC50: 2.82 µM
  IC90: 3.31 µM

## CC(C)NC(=O)c1c(NC(=O)c2cccc(Cl)c2)nc2ccccn12
HEPG2TOX_HILL_SLOPE 1.2, HEPG2TOX_R_SQUARED 0.976, PBLUC_HILL_SLOPE 4.43, PBLUC_R_SQUARED 0.437, read-out: LUCIFERASE INFECTION ASSAY - IC50
  IC50: 1.35 µM
  IC90: 2.22 µM

## CCc1ccc(C(=O)Nc2nc3ccc(C)cn3c2C(=O)NC(C)CC)cc1 (stereo not drawn)
HEPG2TOX_HILL_SLOPE 7.71, HEPG2TOX_R_SQUARED 0.568, PBLUC_HILL_SLOPE 11.7, PBLUC_R_SQUARED 0.544, read-out: LUCIFERASE INFECTION ASSAY - IC50
  IC50: 2.65 µM
  IC90: 3.2 µM

## COc1ccccc1C(=O)Nc1nonc1-c1ccc2c(c1)CCCC2
PBLUC_HILL_SLOPE 13.6, PBLUC_R_SQUARED 0.311, read-out: LUCIFERASE INFECTION ASSAY - IC50
  IC50: 9.15 µM
  IC90: > 9.45 µM

## O=C(NCc1ccccn1)c1nn(CCc2ccccc2)c2c1CN(Cc1cccc3c1OCO3)CC2
PBLUC_HILL_SLOPE 2.34, PBLUC_R_SQUARED 0.543, read-out: LUCIFERASE INFECTION ASSAY - IC50
  IC50: 5.68 µM
  IC90: > 6.66 µM

## COc1ccc(C)cc1NC(=O)C(OC(=O)c1cccn1C)c1ccccc1 (stereo not drawn)
PBLUC_HILL_SLOPE 2.21, PBLUC_R_SQUARED 0.0841, read-out: LUCIFERASE INFECTION ASSAY - IC50
  IC50: 8.87 µM
  IC90: > 10 µM

## CCN(CC)c1ccc(/C=C(\C#N)c2nc3c(s2)CC(C)CC3)cc1 (stereo not drawn)
HEPG2TOX_HILL_SLOPE 34.4, HEPG2TOX_R_SQUARED 0.353, PBLUC_HILL_SLOPE 1.55, PBLUC_R_SQUARED 0.645, read-out: LUCIFERASE INFECTION ASSAY - IC50
  IC50: 4.58 µM
  IC90: > 10 µM

## FC(F)(F)c1ccc(Nc2ccc3c(c2)CCC3)nc1
[1]
  IC50: > 10 µM
  IC90: > 10 µM

## CCN(CC)c1ccc(Nc2nc(-c3sc(C)nc3C)cs2)cc1
[1]
  IC50: > 9.2 µM
  IC90: > 9.2 µM

## O=C1/C(=C/c2ccc3c(c2)OCO3)CCCc2ccccc21
HEPG2TOX_HILL_SLOPE 8.25, HEPG2TOX_R_SQUARED 0.793, PBLUC_HILL_SLOPE 3.07, PBLUC_R_SQUARED 0.361, read-out: LUCIFERASE INFECTION ASSAY - IC50
  IC50: > 11.3 µM
  IC90: > 11.3 µM

## c1ccc(-c2ccc(C3=Nc4ccccc4SC(c4ccco4)C3)cc2)cc1 (stereo not drawn)
FFLUC_HILL_SLOPE 14.5, FFLUC_R_SQUARED 0.557, PBLUC_HILL_SLOPE 1.32, PBLUC_R_SQUARED 0.568, read-out: LUCIFERASE INFECTION ASSAY - IC50
  IC50: 0.903 µM
  IC90: 4.75 µM

## COc1ccccc1/C=C(/C(=O)OCc1cc(=O)n2cc(C)ccc2n1)c1ccccc1
PBLUC_HILL_SLOPE 4.19, PBLUC_R_SQUARED 0.0967, read-out: LUCIFERASE INFECTION ASSAY - IC50
  IC50: 6.55 µM
  IC90: > 10 µM

## COc1ccc(Cc2nn3c(C(=S)NCCCN4CCOCC4)c(-c4ccc(Cl)cc4)c4c3n2CCCC4)cc1
PBLUC_HILL_SLOPE 10, PBLUC_R_SQUARED 0.392, read-out: LUCIFERASE INFECTION ASSAY - IC50
  IC50: 8.06 µM
  IC90: > 10 µM

## Cc1cc(OCC(=O)NC(C)c2ccc(-n3cncn3)cc2)no1 (stereo not drawn)
[1]
  IC50: > 10 µM
  IC90: > 10 µM

## N=C1NC(=Nc2ccc(Cl)c(Cl)c2)c2ccccc21
PBLUC_HILL_SLOPE 9.86, PBLUC_R_SQUARED 0.113, read-out: LUCIFERASE INFECTION ASSAY - IC50
  IC50: 9.53 µM
  IC90: > 10 µM

## CCCCCCCCCCCCSC(=S)c1c(C)[nH]n(-c2ccccc2)c1=O
[1]
  IC50: > 7.88 µM
  IC90: > 7.88 µM

## CN1CCN(c2ccc(-c3cn4c(-c5cccc(OC(F)(F)F)c5)cnc4cn3)cn2)CC1
PBLUC_HILL_SLOPE 2.39, PBLUC_R_SQUARED 0.449, read-out: LUCIFERASE INFECTION ASSAY - IC50
  IC50: 5.98 µM
  IC90: > 7.26 µM

## COc1ccc(NS(=O)(=O)c2cccc(C(=O)N/N=C(\c3ccccc3)c3ccccn3)c2)cc1
FFLUC_HILL_SLOPE 6.58, FFLUC_R_SQUARED 0.0766, HEPG2TOX_HILL_SLOPE 0.953, HEPG2TOX_R_SQUARED 0.956, PBLUC_HILL_SLOPE 1.34, PBLUC_R_SQUARED 0.562, read-out: LUCIFERASE INFECTION ASSAY - IC50
  IC50: 1.29 µM
  IC90: 6.62 µM

## CNC(=O)c1ccc(CN(Cc2ccco2)c2nc(C(F)(F)F)nc3ccccc23)cc1
HEPG2TOX_HILL_SLOPE 6.45, HEPG2TOX_R_SQUARED 0.103, PBLUC_HILL_SLOPE 3.77, PBLUC_R_SQUARED 0.847, read-out: LUCIFERASE INFECTION ASSAY - IC50
  IC50: 1.99 µM
  IC90: 3.56 µM

## CN(C)c1ccccc1-c1cn2c(-c3ccc4ncccc4c3)cnc2cn1
HEPG2TOX_HILL_SLOPE 7.2, HEPG2TOX_R_SQUARED 0.832, read-out: LUCIFERASE INFECTION ASSAY - IC50
  IC50: > 9.03 µM
  IC90: > 9.03 µM

## O=C1NC2(CCOc3ccccc32)C(=O)N1Cc1cc2ccccc2nc1Cl (stereo not drawn)
HEPG2TOX_HILL_SLOPE 1.06, HEPG2TOX_R_SQUARED 0.922, PBLUC_HILL_SLOPE 24.2, PBLUC_R_SQUARED 0.349, read-out: LUCIFERASE INFECTION ASSAY - IC50
  IC50: 1.25 µM
  IC90: 1.37 µM

## COCCCn1c(Sc2ncnc3sc4c(c23)CCC4)nc2sc3c(c2c1=O)CCC3
[1]
  IC50: > 10 µM
  IC90: > 10 µM

## Cc1onc(-c2ccccc2Cl)c1C(=O)ON=C1C2CC3CC(C2)CC1C3
PBLUC_HILL_SLOPE 2.42, PBLUC_R_SQUARED 0.273, read-out: LUCIFERASE INFECTION ASSAY - IC50
  IC50: 5.03 µM
  IC90: > 8.57 µM

## O=C(NCCO)c1cccc(-c2ccc3ncc(-c4cccc(CO)c4)n3n2)c1
HEPG2TOX_HILL_SLOPE 1.86, HEPG2TOX_R_SQUARED 0.81, PBLUC_HILL_SLOPE 12.7, PBLUC_R_SQUARED 0.352, read-out: LUCIFERASE INFECTION ASSAY - IC50
  IC50: 3.09 µM
  IC90: 3.67 µM

## CCCCc1[nH]nc2ccnc(-c3ccc(OC)c(OC)c3)c12
[1]
  IC50: 0.979 µM
  IC90: 1.3 µM

## CCCn1c(NC(=O)c2cc(-c3cccs3)nc3ccccc23)nc2ccccc21
PBLUC_HILL_SLOPE 14.7, PBLUC_R_SQUARED 0.767, read-out: LUCIFERASE INFECTION ASSAY - IC50
  IC50: 9.26 µM
  IC90: > 10 µM

## CC1(C)N=C(N)N=C(N)N1c1ccc(Cl)cc1 [CYCLOGUANIL]
FFLUC_HILL_SLOPE 0.496, FFLUC_R_SQUARED 0.478, PBLUC_HILL_SLOPE 5.33, PBLUC_R_SQUARED 0.733, read-out: LUCIFERASE INFECTION ASSAY - IC50
  IC50: 0.341 µM
  IC90: 0.515 µM

## O=C(CCC(=O)N1CCC(C(O)(c2ccccc2)c2ccccc2)CC1)c1cccs1
HEPG2TOX_HILL_SLOPE 0.15, HEPG2TOX_R_SQUARED 0.513, PBLUC_HILL_SLOPE 4.19, PBLUC_R_SQUARED 0.279, read-out: LUCIFERASE INFECTION ASSAY - IC50
  IC50: 2.16 µM
  IC90: 3.65 µM

## COc1ccc(-c2cc(NC=O)c3ncc(-c4ccc(OC)c(OC)c4)n3c2)c(OC)c1
HEPG2TOX_HILL_SLOPE 0.668, HEPG2TOX_R_SQUARED 0.811, PBLUC_HILL_SLOPE 48.6, PBLUC_R_SQUARED 0.635, read-out: LUCIFERASE INFECTION ASSAY - IC50
  IC50: 0.0312 µM
  IC90: 0.0326 µM

## COc1ccc(-n2cc(-c3ccccc3)c3c(NCc4cccnc4)ncnc32)cc1
[1]
  IC50: > 10 µM
  IC90: > 10 µM

## CC(NCc1nc(N)nc(N(C)C)n1)c1ccccc1Cl (stereo not drawn)
[1]
  IC50: > 10 µM
  IC90: > 10 µM

## Cc1ccc(SCCNS(=O)(=O)c2ccc(F)cc2)cc1
[1]
  IC50: > 10.1 µM
  IC90: > 10.1 µM

## COc1cc(-c2cnn3ccc(Nc4ccc(C(C)C)cc4)nc23)cc(OC)c1OC
HEPG2TOX_HILL_SLOPE 4.98, HEPG2TOX_R_SQUARED 0.891, PBLUC_HILL_SLOPE 3.46, PBLUC_R_SQUARED 0.366, read-out: LUCIFERASE INFECTION ASSAY - IC50
  IC50: 2.63 µM
  IC90: 4.97 µM

## O=S(=O)(N=C1c2ccccc2/C(=N/S(=O)(=O)c2ccc(Cl)cc2)C2C3C=CC(CC3)C12)c1ccc(Cl)cc1 (stereo not drawn)
[1]
  IC50: 8.44 µM
  IC90: > 10 µM

## S=C(NCc1ccc(Cl)c(Cl)c1)Nc1cccnc1
[1]
  IC50: > 10.6 µM
  IC90: > 10.6 µM

## CC1(C)C=Cc2cc(-c3noc(-c4ccccc4)n3)ccc2O1
  IC90: 0.379 µM

## CNc1nc2cnc(Nc3ccc(C(C)C)cc3)cc2n1-c1cc(OC)c(OC)c(OC)c1
HEPG2TOX_HILL_SLOPE 3.92, HEPG2TOX_R_SQUARED 0.032, PBLUC_HILL_SLOPE 0.581, PBLUC_R_SQUARED 0.333, read-out: LUCIFERASE INFECTION ASSAY - IC50
  IC50: > 10 µM
  IC90: > 10 µM
